{
  "source": "patent US20240059685A1",
  "about": "“PIEZO1 AGONISTS FOR THE PROMOTION OF BONE FORMATION” (BIOVENTURES, LLC, priority 2019, published 2024)",
  "key": {"Piezo1 [1]": {"biological_target": "T1, Piezo1 (Mus musculus, UniProt E2JF22)", "T1 construct": "To identify Piezo1 stimulators, we treated MLO-Y4 cells with compounds; endogenous in cells; host or cells: MLO-Y4 (murine osteocyte-like cell line); control sh-Luc cells, with sh-Piezo1 knock-down cells as the specificity control", "T1 sequence (E2JF22 whole entry)": "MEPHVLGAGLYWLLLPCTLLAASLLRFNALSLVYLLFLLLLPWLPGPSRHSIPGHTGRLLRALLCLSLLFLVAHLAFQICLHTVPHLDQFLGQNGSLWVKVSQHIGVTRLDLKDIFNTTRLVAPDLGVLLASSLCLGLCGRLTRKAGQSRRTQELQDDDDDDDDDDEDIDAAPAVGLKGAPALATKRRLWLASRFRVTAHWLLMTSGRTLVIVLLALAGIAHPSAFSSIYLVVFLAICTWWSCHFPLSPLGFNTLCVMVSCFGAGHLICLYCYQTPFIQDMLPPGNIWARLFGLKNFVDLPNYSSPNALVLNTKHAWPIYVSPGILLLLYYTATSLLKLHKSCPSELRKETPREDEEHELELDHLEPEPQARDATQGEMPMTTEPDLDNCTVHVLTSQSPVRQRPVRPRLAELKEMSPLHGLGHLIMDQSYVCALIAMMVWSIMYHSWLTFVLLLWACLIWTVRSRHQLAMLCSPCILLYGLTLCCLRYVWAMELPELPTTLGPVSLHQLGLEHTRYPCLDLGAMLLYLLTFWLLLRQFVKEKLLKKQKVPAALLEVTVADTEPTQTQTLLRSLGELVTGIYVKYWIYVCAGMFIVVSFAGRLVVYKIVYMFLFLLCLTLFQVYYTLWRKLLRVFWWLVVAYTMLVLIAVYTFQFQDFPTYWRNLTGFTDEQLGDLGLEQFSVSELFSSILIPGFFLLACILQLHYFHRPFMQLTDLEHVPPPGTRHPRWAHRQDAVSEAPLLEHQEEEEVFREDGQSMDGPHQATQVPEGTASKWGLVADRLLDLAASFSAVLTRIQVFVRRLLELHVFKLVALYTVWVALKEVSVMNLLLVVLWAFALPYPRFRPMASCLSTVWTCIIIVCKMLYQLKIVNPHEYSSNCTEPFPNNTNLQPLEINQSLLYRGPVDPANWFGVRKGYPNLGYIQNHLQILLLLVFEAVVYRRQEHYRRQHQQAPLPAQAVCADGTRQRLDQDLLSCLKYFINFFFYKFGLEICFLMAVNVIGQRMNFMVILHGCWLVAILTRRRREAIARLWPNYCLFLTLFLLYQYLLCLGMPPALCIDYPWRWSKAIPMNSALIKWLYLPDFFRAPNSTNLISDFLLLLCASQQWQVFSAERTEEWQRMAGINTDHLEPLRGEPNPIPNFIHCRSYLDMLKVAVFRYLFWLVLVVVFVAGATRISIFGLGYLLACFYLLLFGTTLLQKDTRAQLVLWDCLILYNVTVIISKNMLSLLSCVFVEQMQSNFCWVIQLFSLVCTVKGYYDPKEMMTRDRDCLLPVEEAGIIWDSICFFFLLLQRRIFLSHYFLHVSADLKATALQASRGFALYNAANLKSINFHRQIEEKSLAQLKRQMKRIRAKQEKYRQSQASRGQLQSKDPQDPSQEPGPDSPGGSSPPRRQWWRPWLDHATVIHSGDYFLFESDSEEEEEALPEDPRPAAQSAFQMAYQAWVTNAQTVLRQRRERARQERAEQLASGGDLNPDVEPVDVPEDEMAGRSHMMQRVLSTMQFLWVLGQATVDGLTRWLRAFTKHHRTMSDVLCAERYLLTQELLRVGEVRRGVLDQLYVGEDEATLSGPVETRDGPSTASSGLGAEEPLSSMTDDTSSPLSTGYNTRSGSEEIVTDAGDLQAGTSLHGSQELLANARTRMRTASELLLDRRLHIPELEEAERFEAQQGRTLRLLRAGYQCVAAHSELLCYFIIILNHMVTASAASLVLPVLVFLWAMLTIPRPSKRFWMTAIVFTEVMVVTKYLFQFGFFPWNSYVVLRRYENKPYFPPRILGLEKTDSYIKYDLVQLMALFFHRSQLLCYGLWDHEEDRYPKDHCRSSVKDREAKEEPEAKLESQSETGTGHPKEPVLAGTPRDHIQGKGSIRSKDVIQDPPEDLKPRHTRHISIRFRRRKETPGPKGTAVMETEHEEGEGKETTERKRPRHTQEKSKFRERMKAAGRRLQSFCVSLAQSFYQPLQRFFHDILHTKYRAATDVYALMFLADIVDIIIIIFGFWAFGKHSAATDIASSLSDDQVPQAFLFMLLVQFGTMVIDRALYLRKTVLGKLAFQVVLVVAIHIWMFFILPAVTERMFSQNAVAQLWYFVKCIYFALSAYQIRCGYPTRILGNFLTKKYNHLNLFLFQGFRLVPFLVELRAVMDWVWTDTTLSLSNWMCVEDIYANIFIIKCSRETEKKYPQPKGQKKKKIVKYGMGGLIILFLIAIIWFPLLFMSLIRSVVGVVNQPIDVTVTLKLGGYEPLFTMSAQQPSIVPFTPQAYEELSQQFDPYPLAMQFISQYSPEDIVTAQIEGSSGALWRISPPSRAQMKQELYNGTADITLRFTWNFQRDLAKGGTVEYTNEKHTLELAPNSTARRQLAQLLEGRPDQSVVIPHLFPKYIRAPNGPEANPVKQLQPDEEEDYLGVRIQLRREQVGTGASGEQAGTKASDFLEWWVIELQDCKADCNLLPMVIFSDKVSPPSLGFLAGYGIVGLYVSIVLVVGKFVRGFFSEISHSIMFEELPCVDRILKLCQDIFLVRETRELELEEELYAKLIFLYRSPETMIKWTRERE", "assay": "Intracellular calcium concentration (Fluo-8) in control or Piezo1 knock-down MLO-Y4 cells", "assay_type": "cell-based, murine", "conditions": "for calcium influx / increase of intracellular calcium in Piezo1 knock-down cells: Piezo1 knock-down (sh-Piezo1) MLO-Y4 cells", "method": "Calcium concentration measurement. For intracellular calcium concentration measurement under fluid flow condition, 1×10^5 MLO-Y4 cells were seeded in a μ-Slide I Luer (0.4 mm) fluid chamber slide (MIDI, Germany) overnight. One hour before initiating fluid flow, the culture medium was removed and 100 μl Hank's Buffer with Hepes (HHBS) containing 4μM Fluo-8 (Abcam, Cambridge, MA) was added to the culture, as described by the manufacturer. The cells were then cultured at 37° C. for 30 minutes. After additional incubation at room temperature for 30 minutes, the chamber slide was placed under a confocal microscope in order to record the intensity of fluorescence of MLO-Y4 cells. Fluorescence was recorded for 3 minutes before starting fluid flow using HHBS and then recorded for another 10 minutes. The increase of intracellular concentration was calculated by subtracting the initial mean fluorescence. For measuring intracellular calcium concentration in cells with Yoda1 treatment, we cultured 4,000 MLO-Y4 cells per well in a 96-well-plate. We preloaded the cells with Fluo-8 as described by the manufacturer and read the intensity of the fluorescence using a Victor X3 multi-label plate reader (Perkin Elmer, Waltham, MA) immediately after the treatment. We measured the fluorescence for 5 minutes at an interval of 20 seconds. The percentage of increase in intracellular calcium concentration was calculated as (Fx-F0)/F0.\n(§1) To identify Piezo1 stimulators, we treated MLO-Y4 cells with compounds Yoda1, YW-3-159, W-3-163, W-3-168-1, W-3-168-2, W-3-170, W-3-173-1, W-3-173-2, and YW-3-174. Gene expression of Wnt1, Ptgs2, and Tnfrsf11b was measured to determine the activation of Piezo1. In addition, intracellular calcium concentration was measured to determine the activity of Piezo1 channel. […] Yoda1 was used as a positive control in all experiments."}, "[2]": {"tested_on": "osteocyte-enriched cortical bone", "assay": "Wnt1 expression in tibia after one Yoda1 injection", "assay_type": "in vivo", "conditions": "4-month-old female C57BL/6J mice, one injection 5 μmol/kg intraperitoneally, tibiae 4 hours later", "method": "To quantify cancellous bone formation, we injected mice with calcein (20 mg/kg body weight) intraperitoneally 7 and 3 days before harvest. To quantify periosteal and endocortical bone formation, we injected mice with calcein (20 mg/kg body weight) and Alizarin Red (20 mg/kg body weight) 10 and 3 days before harvest. For gene expression, we injected Yoda1 into 4-month-old female C57BL/6J mice one time and harvested tibiae 4 hours later for RNA extraction. For bone mass evaluation, we injected Yoda1 into 4-month-old female C57BL/6J mice 5 consecutive days per week for 2 weeks (day 1-5 and day 8-12) and harvested the mice at day 15 for analysis. […]\nQuantitative PCR. […] We performed quantitative RT-PCR using the following Taqman assays from Applied Biosystems: Piezo1 (Mm01241549_m1); Piezo2 (Mm01265861_m1); Ptgs2 (Mm00478374_m1); Cyr61 (Mm00487498_m1); Wnt1 (Mm01300-555_g1); Yap1 (Mm011432-63_m1); Taz (Mm01289583_m1); Tnfsf11 Mm00441906_m1; Tnfrsf11b (Mm00435452_m1); Sost (Mm00470479_m1); and ribosomal protein S2 (Mrps2) (Mm00475529_m1). We calculated relative mRNA amounts using the ΔCt method (Livak and Schmittgen, 2001). […] We obtained two custom Taqman assays from Applied Biosystems for quantifying Piezo1 gene deletion efficiency: one specific for sequences between the loxP sites and the other specific for sequences downstream from the 3′ loxP site."}, "C57BL/6J mice": {"tested_on": "C57BL/6J mice", "assay": "Serum osteocalcin and CTX ELISA after 2 weeks of administration", "assay_type": "in vivo", "conditions": "4-month-old female C57BL/6J mice, 5 μmol/kg intraperitoneally, 5 days per week for 2 weeks", "method": "To quantify cancellous bone formation, we injected mice with calcein (20 mg/kg body weight) intraperitoneally 7 and 3 days before harvest. To quantify periosteal and endocortical bone formation, we injected mice with calcein (20 mg/kg body weight) and Alizarin Red (20 mg/kg body weight) 10 and 3 days before harvest. For gene expression, we injected Yoda1 into 4-month-old female C57BL/6J mice one time and harvested tibiae 4 hours later for RNA extraction. For bone mass evaluation, we injected Yoda1 into 4-month-old female C57BL/6J mice 5 consecutive days per week for 2 weeks (day 1-5 and day 8-12) and harvested the mice at day 15 for analysis. Yoda1 (Sigma, St. Louis, MO) was dissolved in DMSO at 40 mM as a stock, diluted in 5% ethanol, and injected intraperitoneally at 5 μmol/kg body weight. Mice were rank-ordered by body weight and then assigned to Veh or Yoda1 groups to give identical group means. All investigators involved in data collection were blinded as to the genotype and group of the mice.\nOsteocalcin and CTX ELISA. Circulating osteocalcin and CTX in serum was measured using a mouse Osteocalcin enzyme immunoassay kit (Thermo Fisher) and RatLaps™ (CTX-I) EIA kit (Immunodiagnostic Systems, Boldon, UK) respectively according to the manual provided by manufacturers. Blood was collected by retro-orbital bleeding into 1.7 mL microcentrifuge tubes. […]"}, "femoral cortical bone": {"tested_on": "femoral cortical bone", "assay": "Ex vivo femoral cortical bone organ culture, qPCR", "assay_type": "cell-based", "conditions": "cortical bone organ culture from 5-week-old mice, 10 μM, 4 hours, vs DMSO", "method": "Femoral organ culture. Female mice at 5 weeks of age were euthanized in a CO2 chamber. Femurs were dissected and both ends were removed in a culture hood. Bone marrow was then flushed out using PBS and the periosteal surface was scraped to remove periosteal cells. Femoral shafts were then cultured in a 12-well-plate with 1 ml of α-MEM supplemented with 10% FBS and 1% penicillin/streptomycin/glutamine for 24 hours. We then treated femur shafts with 10 μM Yoda1 (Sigma, St. Louis, MO) or DMSO for 4 hours. Femur shafts were then collected for RNA isolation and qPCR analysis. Ex vivo femoral organ culture was repeated twice with three biological replicates.\nQuantitative PCR. Organs and whole bones were harvested from animals, removed of soft tissues, and stored immediately in liquid nitrogen. We prepared osteocyte-enriched bone by removing the ends of femurs and tibias and then flushing the bone marrow with PBS. We then scraped the bone surface with a scalpel and froze them in liquid nitrogen for later RNA isolation, or decalcified them for genomic DNA isolation. We isolated total RNA using TRIzol (Life technologies, NY), according to the manufacturer's instructions and prepared cDNA using High Capacity first strand cDNA synthesis kit (Life Technologies). We performed quantitative RT-PCR using the following Taqman assays from Applied Biosystems: Piezo1 (Mm01241549_m1); Piezo2 (Mm01265861_m1); Ptgs2 (Mm00478374_m1); Cyr61 (Mm00487498_m1); Wnt1 (Mm01300-555_g1); Yap1 (Mm011432-63_m1); Taz (Mm01289583_m1); Tnfsf11 Mm00441906_m1; Tnfrsf11b (Mm00435452_m1); Sost (Mm00470479_m1); and ribosomal protein S2 (Mrps2) (Mm00475529_m1). We calculated relative mRNA amounts using the ΔCt method (Livak and Schmittgen, 2001). We isolated genomic DNA from decalcified cortical bone after digestion with proteinase K and phenol/chloroform extraction. We obtained two custom Taqman assays from Applied Biosystems for quantifying Piezo1 gene deletion efficiency: one specific for sequences between the loxP sites and the other specific for sequences downstream from the 3′ loxP site."}, "calvaria cells": {"tested_on": "calvaria cells", "assay": "Mitochondria staining (MitoBright dye) in wildtype and Piezo1 knockout calvaria cells", "assay_type": "cell-based", "conditions": "10 μM, 24 hours; for increases in mitochondria staining in Piezo1 knockout cells: Piezo1 knockout calvaria cells; for mitochondria staining: wildtype calvaria cells", "method": "Next, we determined whether Yoda1 or YW-3-170 increase mitochondria number in primary calvaria cells. Wildtype and Piezo1 knockout calvarial cells were treated with 10 μM Yoda1 or YW-3-170 for 24 hours and then were stained for Mitochondria using MitoBright dye. […] However, these increases were blunted in Piezo1 knockout cells. […] The fluorescence intensity was quantified using the ImageJ software."}, "Piezo1 [3]": {"biological_target": "T1, Piezo1", "assay": "Activation of Piezo1 in MLO-Y4 cells, overall conclusion from gene expression and calcium influx", "assay_type": "cell-based, murine", "method": "as §1"}},
  "note": "“Also recorded” adds a separate entry of the source.",
  "data": [
    {"smiles": "Clc1cccc(Cl)c1CSc1nnc(-c2cnccn2)s1", "note": "[Yoda1]", "values": [
      {"measurement": "intracellular calcium concentration", "setting": "Piezo1 [1]; MLO-Y4 cells, 10 μM, vs DMSO", "result": "increased"},
      {"measurement": "calcium influx / increase of intracellular calcium in Piezo1 knock-down cells", "setting": "Piezo1 [1]; 10 μM", "result": "completely prevented; also recorded: completely blocked"},
      {"measurement": "Wnt1 expression in osteocyte-enriched cortical bone in vivo", "setting": "[2]", "result": "increased"},
      {"measurement": "serum levels of CTX, a bone resorption marker", "setting": "C57BL/6J mice", "result": "did not observe changes"},
      {"measurement": "serum levels of osteocalcin, a bone formation marker", "setting": "C57BL/6J mice", "result": "increased"},
      {"measurement": "Cyr61 expression", "setting": "femoral cortical bone", "result": "promoted expression"},
      {"measurement": "Ptgs2 expression", "setting": "femoral cortical bone", "result": "promoted expression"},
      {"measurement": "Sost expression", "setting": "femoral cortical bone", "result": "decreased"},
      {"measurement": "Tnfrsf11b expression", "setting": "femoral cortical bone", "result": "promoted expression"},
      {"measurement": "Wnt1 expression", "setting": "femoral cortical bone", "result": "promoted expression"},
      {"measurement": "increases in mitochondria staining in Piezo1 knockout cells", "setting": "calvaria cells", "result": "blunted; also recorded: requires Piezo1"},
      {"measurement": "mitochondria staining", "setting": "calvaria cells", "result": "increase"}
    ]},
    {"smiles": "Fc1ccc(Cl)c(CSc2nnc(-c3cnccn3)s2)c1Cl", "note": "[YW-3-170]", "values": [
      {"measurement": "calcium influx compared with Yoda1", "setting": "Piezo1 [1]; MLO-Y4 cells, 10 μM", "result": "much more calcium influx than Yoda1"},
      {"measurement": "intracellular calcium concentration compared with Yoda1", "setting": "Piezo1 [1]; MLO-Y4 cells, at 2 μM, 5 μM, and 10 μM", "result": "higher intracellular calcium concentration than Yoda1"},
      {"measurement": "intracellular calcium concentration, dose dependence", "setting": "Piezo1 [1]; MLO-Y4 cells, different doses", "result": "dose-dependently"},
      {"measurement": "calcium influx / increase of intracellular calcium in Piezo1 knock-down cells", "setting": "Piezo1 [1]; 10 μM", "result": "completely blocked; also recorded: loss of their ability to stimulate calcium influx"},
      {"measurement": "increases in mitochondria staining in Piezo1 knockout cells", "setting": "calvaria cells; listed as 170", "result": "requires Piezo1"},
      {"measurement": "increases in mitochondria staining in Piezo1 knockout cells", "setting": "calvaria cells; listed as compound I", "result": "blunted"},
      {"measurement": "stimulation of mitochondria staining compared with Yoda1", "setting": "calvaria cells; calvaria cells", "result": "more potent stimulation of mitochondria staining than Yoda1"},
      {"measurement": "mitochondria staining", "setting": "calvaria cells; listed as 170", "result": "increase"},
      {"measurement": "mitochondria staining", "setting": "calvaria cells; listed as compound I", "result": "increased"},
      {"measurement": "Piezo1 agonist activity (conclusion in words)", "setting": "Piezo1 [3]; MLO-Y4 cells", "result": "potent agonists for Piezo1; also recorded: potent and specific Piezo1 agonists"},
      {"measurement": "activity in activating Piezo1 compared to Yoda1", "setting": "Piezo1 [3]; MLO-Y4 cells in vitro", "result": "comparable or superior activity"}
    ]}
  ]
}
